In patent publication US7223837B2, “Elongated and multiple spacers in activatible prodrugs” (Syntarga B.V., priority 2001, dated 2007):
≈ marks a conversion by molar mass, not a printed value.

Experiments:
[1] = absence of zinc powder, methanol/acetic acid, same conditions
Protocol: 36 mg of 2′-[nitrocinnamyl carbonate]-paclitaxel 1 was dissolved in 8 ml methanol and 2 ml acetic acid. A catalytic amount of zinc powder was added and the red mixture was stirred for 12 h. Dichloromethane was added and the organic layer was washed with saturated sodium bicarbonate, 0.5 N potassium bisulfate, brine, and water and dried over anhydrous sodium sulfate.

[2] = test system: A498; assay: Anti-proliferative effect, SRB test; format: cell-based, human; details: A498 renal cancer, 5 days of incubation
Protocol: (§1) The anti-proliferative effect of prodrugs and parent drugs was determined in vitro applying seven well-characterised human tumor cell lines and the microculture sulphorhodamine B (SRB) test. The anti-proliferative effects were determined and expressed as IC50 values, that are the (pro)drug concentrations that gave 50% inhibition when compared to control cell growth after 5 days of incubation.

[3] = test system: WIDR; assay: Anti-proliferative effect, SRB test; format: cell-based, human; details: WIDR colon cancer, 5 days of incubation
Protocol: as §1

[4] = test system: MCF-7; assay: Anti-proliferative effect, SRB test; format: cell-based, human; details: MCF-7 breast cancer, 5 days of incubation
Protocol: as §1

[5] = test system: EVSA-T; assay: Anti-proliferative effect, SRB test; format: cell-based, human; details: EVSA-T breast cancer, 5 days of incubation
Protocol: as §1

[6] = test system: H226; assay: Anti-proliferative effect, SRB test; format: cell-based, human; details: H226 non-small cell lung cancer, 5 days of incubation
Protocol: as §1

[7] = test system: IGROV; assay: Anti-proliferative effect, SRB test; format: cell-based, human; details: IGROV ovarian cancer, 5 days of incubation
Protocol: as §1

[8] = test system: M19; assay: Anti-proliferative effect, SRB test; format: cell-based, human; details: M19 melanoma, 5 days of incubation
Protocol: as §1

[9] = Stability of prodrugs in 0.1 M Tris/HCl buffer (pH 7.3); details: TLC
[10] = 150 μM in 0.1 M Tris/HCl buffer (pH 7.3), 3 days

Molecule | paclitaxel release without reduction [1] | ID50 [2] [ng/mL] | ID50 [3] [ng/mL] | ID50 [4] [ng/mL] | ID50 [5] [ng/mL] | ID50 [6] [ng/mL] | ID50 [7] [ng/mL] | ID50 [8] [ng/mL] | formation of degradation products ([9]; 100–270 μM in 0.1 M Tris/HCl buffer (pH 7.3), 90 hours) | formation of degradation products [9, 10]
CC(=O)OC1C(=O)C2(C)C(O)CC3OCC3(OC(C)=O)C2C(OC(=O)c2ccccc2)C2(O)CC(OC(=O)C(OC(=O)OCC=Cc3ccc([N+](=O)[O-])cc3)C(NC(=O)c3ccccc3)c3ccccc3)C(C)=C1C2(C)C (stereo not drawn) [Prodrug 1, 2′-[4-nitrocinnamyl carbonate]-paclitaxel] | no paclitaxel was formed | – | – | – | – | – | – | – | – | –
COc1cccc2c1C(=O)c1c(O)c3c(c(O)c1C2=O)C[C@@](O)(C(=O)CO)C[C@@H]3O[C@H]1C[C@H](N)[C@H](O)[C@H](C)O1 [Doxorubicin, doxorubicin, reference compound] | – | 90 (≈ 0.166 µM) | 11 (≈ 0.0202 µM) | 10 (≈ 0.0184 µM) | 8 (≈ 0.0147 µM) | 199 (≈ 0.366 µM) | 60 (≈ 0.11 µM) | 16 (≈ 0.0294 µM) | – | –
H-D-Ala-Phe-Lys-PABC-PABC-DOX.5.7HCl [Prodrug 20] | – | 2303 | 627 | 242 | 546 | 503 | 896 | 302 | no formation of degradation products | –
2′-[H-D-Ala-Phe-Lys-PABC-N(Me)—(CH2)2—N(Me)CO]-paclitaxel (.2HCl) [Prodrug 43] | – | 681 | 117 | 60 | 119 | 62 | 499 | 96 | – | no formation of degradation products
CC(=O)OC1C(=O)C2(C)C(O)CC3OCC3(OC(C)=O)C2C(OC(=O)c2ccccc2)C2(O)CC(OC(=O)C(OC(=O)OCc3ccc(NC(=O)OCc4ccc(NC(=O)C(CCCCN)NC(=O)C(Cc5ccccc5)NC(=O)C(C)N)cc4)cc3)C(NC(=O)c3ccccc3)c3ccccc3)C(C)=C1C2(C)C.Cl.Cl [Prodrug 22, 2′-[H-D-Ala-Phe-Lys-PABC-PABC]-paclitaxel (.2HCl)] | – | 25 | 5 | 11 | 5 | 7 | 22 | 7 | – | no formation of degradation products
CC(=O)O[C@H]1C(=O)[C@@]2(C)[C@H]([C@H](OC(=O)c3ccccc3)[C@]3(O)C[C@H](OC(=O)[C@H](O)[C@@H](NC(=O)c4ccccc4)c4ccccc4)C(C)=C1C3(C)C)[C@]1(OC(C)=O)CO[C@@H]1C[C@@H]2O [Paclitaxel, paclitaxel, reference compound] | – | <3 | <3 | <3 | <3 | <3 | 10 (≈ 0.0117 µM) | <3 | – | –
